From publication PMC5628579, “Potent mechanism-based sirtuin-2-selective inhibition by an in situ-generated occupant of the substrate-binding site, “selectivity pocket” and NAD^+-binding site” (Chemical Science, 2017)

Tests used:
SIRT2 = molecular target: T1, SIRT2 (Homo sapiens, UniProt Q8IXJ6); assay: Fluor de Lys SIRT2 assay
T1 sequence (Q8IXJ6 1-389): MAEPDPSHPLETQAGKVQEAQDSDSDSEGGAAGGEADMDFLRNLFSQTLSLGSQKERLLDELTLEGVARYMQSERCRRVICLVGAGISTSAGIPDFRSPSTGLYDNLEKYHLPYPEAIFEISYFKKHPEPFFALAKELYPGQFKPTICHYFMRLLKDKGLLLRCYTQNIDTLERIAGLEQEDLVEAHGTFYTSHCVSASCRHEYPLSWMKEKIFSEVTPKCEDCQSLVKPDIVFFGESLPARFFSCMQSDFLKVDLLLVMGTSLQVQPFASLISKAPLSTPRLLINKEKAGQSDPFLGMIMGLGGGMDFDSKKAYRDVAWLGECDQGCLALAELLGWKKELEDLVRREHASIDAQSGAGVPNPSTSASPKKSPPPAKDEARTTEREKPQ

neuro-2a (N2a) cells = assay: Neurite outgrowth assay; format: cell-based, mouse; conditions: 72 h, vehicle 14.22 ± 2.9%
SIRT3 = molecular target: T2, SIRT3 (Homo sapiens, UniProt Q9NTG7); assay: Fluor de Lys SIRT3 assay
T2 sequence (Q9NTG7 1-399): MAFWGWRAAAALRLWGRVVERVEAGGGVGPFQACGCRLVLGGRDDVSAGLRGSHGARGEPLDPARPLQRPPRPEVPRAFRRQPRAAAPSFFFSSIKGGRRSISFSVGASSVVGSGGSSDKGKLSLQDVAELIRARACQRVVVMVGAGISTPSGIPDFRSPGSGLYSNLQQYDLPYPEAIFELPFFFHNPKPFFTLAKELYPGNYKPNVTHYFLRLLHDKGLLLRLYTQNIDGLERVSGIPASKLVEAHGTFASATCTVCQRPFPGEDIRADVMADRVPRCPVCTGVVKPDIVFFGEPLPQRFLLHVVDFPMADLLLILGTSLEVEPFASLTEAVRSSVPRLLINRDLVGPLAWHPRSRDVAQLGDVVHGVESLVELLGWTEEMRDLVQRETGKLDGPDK

SIRT5 = molecular target: T3, SIRT5 (Homo sapiens, UniProt Q9NXA8); assay: Fluor de Lys SIRT5 assay
T3 sequence (Q9NXA8 37-310): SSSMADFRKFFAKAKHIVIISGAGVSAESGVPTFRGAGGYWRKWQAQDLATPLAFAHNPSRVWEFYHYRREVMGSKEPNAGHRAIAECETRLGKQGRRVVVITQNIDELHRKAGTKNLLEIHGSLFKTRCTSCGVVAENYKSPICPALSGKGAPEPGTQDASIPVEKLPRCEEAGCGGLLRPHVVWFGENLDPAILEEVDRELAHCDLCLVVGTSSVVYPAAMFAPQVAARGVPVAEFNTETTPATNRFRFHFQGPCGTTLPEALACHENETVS

MDA-MB-231 cells = assay: Cell growth assay (AlamarBlue), MDA-MB-231; format: cell-based, human; conditions: 72 h of treatment
SIRT1 = molecular target: T4, SIRT1 (Homo sapiens, UniProt Q96EB6); assay: Fluor de Lys SIRT1 assay
T4 sequence (Q96EB6 1-747): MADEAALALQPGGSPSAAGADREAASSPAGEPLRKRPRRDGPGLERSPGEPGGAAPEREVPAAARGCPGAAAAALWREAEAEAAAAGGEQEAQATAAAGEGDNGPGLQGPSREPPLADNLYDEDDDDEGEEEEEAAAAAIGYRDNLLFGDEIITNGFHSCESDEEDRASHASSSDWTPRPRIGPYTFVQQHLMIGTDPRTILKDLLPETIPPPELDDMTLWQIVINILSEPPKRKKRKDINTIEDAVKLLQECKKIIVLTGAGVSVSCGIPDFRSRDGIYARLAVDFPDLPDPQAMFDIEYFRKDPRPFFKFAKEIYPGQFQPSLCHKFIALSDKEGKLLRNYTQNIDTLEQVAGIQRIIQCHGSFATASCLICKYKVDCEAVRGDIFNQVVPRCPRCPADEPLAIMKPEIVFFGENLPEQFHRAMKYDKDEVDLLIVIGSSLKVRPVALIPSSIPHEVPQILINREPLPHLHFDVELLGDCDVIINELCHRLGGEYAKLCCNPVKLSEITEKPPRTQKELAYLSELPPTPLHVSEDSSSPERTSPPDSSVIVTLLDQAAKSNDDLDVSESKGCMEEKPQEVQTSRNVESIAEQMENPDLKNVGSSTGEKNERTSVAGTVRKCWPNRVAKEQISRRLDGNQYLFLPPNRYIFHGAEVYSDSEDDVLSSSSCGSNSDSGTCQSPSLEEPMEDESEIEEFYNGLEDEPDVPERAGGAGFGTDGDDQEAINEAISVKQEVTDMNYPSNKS

IC50 (SIRT2): 0.055 ± 0.0035 µM
inhibition at 1 µM (SIRT2; read-out: % inhibition at 1 μM SIRT2): 100 ± 3.4%
SIRT1 [IC50]/SIRT2 [IC50] (SIRT2; selectivity ratio): 28.4
SIRT3 [IC50]/SIRT2 [IC50] (SIRT2; selectivity ratio): 172.5
IC50 (SIRT3): 9.49 ± 1.7 µM
inhibition at 1 µM (SIRT3; read-out: % inhibition at 1 μM SIRT3): 2 ± 1.8%
inhibition at 10 µM (SIRT5; read-out: % inhibition at 10 μM SIRT5): 4 ± 2.6%
inhibition at 50 µM (SIRT5; read-out: % inhibition at 50 μM SIRT5): 10%
GI50 (MDA-MB-231 cells): 8.43 ± 0.24 µM
GI50 (MDA-MB-231 cells; Homo sapiens, MDA-MB-231, 72 h): 8.3 µM
IC50 (SIRT1): 1.56 ± 0.06 µM
inhibition at 1 µM (SIRT1; read-out: % inhibition at 1 μM SIRT1): 29.5 ± 2.1%
Structure (SMILES): C[C@H](NC(=O)[C@H](CCCCNC(=S)CNC(=O)c1ccccc1Nc1cccc(OCCc2ccccc2)c1)NC(=O)OCc1ccccc1)C(N)=O [Compound 36]
percentage of differentiated cells (neuro-2a (N2a) cells; 0.5 μM): 23.09 ± 3.21%
percentage of differentiated cells (neuro-2a (N2a) cells; 1 μM): 25.73 ± 1.3%
